Patent publication US12172986B2, “Splicing modulator antibody-drug conjugates and methods of use” (EISAI R&D MANAGEMENT CO., LTD., priority 2018, dated 2024)
Several values for one entry are separate records, joined by “and”; a condition that tells them apart may be missing. Equal entries are not always repeated.

Tests used:
[1] = test system: THP1.1; assay: Payload cell potency and lethality CTGlo 72 h, THP1.1; type: cell-based; conditions: payload
[2] = test system: MCF7 cells; assay: Cell viability CellTiter-Glo, HER2-negative MCF7; conditions: unconjugated payload of the ADC
Method: HCC1954 (American Type Culture Collection (ATCC)) breast ductal carcinoma cells were plated at 2000 cells/well in flat bottom 96-well tissue culture plates (Corning) in a total volume of 90 μL tissue culture medium supplemented with 10% fetal bovine serum (ThermoFisher Scientific). Cells were treated with a 3-fold serial dilution of compound from 200 nM to 0.03 nM. Each concentration was tested in triplicate. At the time of treatment, a plate of untreated cells was evaluated using CellTiter-Glo®2.0 Luminescent Cell Viability Assay according to the manufacturer's recommendations (Promega; #G9241). CellTiter-Glo® 2.0 reagent was added to the medium, incubated, and assayed on an EnVision Multilabel Reader (PerkinElmer). Values represent time zero (TO). […] Using the luminescence value at time zero (TO), DMSO control growth (C), and test growth in the presence of compound (T144), the percentage growth was calculated at each of the compound concentrations levels. Percentage growth inhibition was calculated as: [(T144-T0)/(C-TO)]×100 for concentrations for which T144>/=TO or [(T144-T0)/T0]×100 for concentrations for which T144<TO. The dose response curve plots were generated using Prism 7 (Graphpad) and fit using nonlinear regression analysis and the log(inhibitor) versus response-variable slope (four parameters).
(§2) HCC1954 (ATCC), 2000 cells/well), N87 (ATCC, 4000 cells/well), SKBR3 (ATCC, 3000 cells/well), and MCF7 (ATCC, 1500 cells/well) cell lines were used.

[3] = Caco-2 permeability of ADC payload; type: in vitro ADME; conditions: human, Caco-2; payload, B-A/A-B; read-out: Eflux ratio
Method: (§1) Integrity of cell monolayer was confirmed by TEER (transepithelial electrical resistance) and Lucifer yellow. Payloads were spiked in duplicate at 10 μM, separately, on both sides of the cell monolayer. Permeability rates from the apical to basolateral (A-B) direction and the basolateral to apical (B-A) direction were determined by sampling aliquots from both chambers immediately after treatment (t=0) and following incubation for 2 hours. Samples were protein precipitated with organic solvent containing internal standard and analyzed by LC-MS/MS (SCIEX; API 5500). The area ratio responses of payload/internal standard over time in both directions were used to generate permeability (cm/see) values. Efflux ratio was calculated by dividing B-A/A-B. Control compounds for low and high permeability and efflux behaved as expected.

[4] = test system: Caco-2 cells; assay: Caco-2 permeability of ADC payload; type: in vitro ADME; conditions: for Perm. Mean Caco-2 A-B Perm (10e-6 cm/s) / Perm. Mean Caco-2 B-A Perm (10e-6 cm/s): corresponding free payload of the ADC; for Eflux ratio: B-A/A-B; for Permeability Caco-2 A-B (10e-6 cm/s): Table 26, corresponding payload
Method: as §1

[5] = test system: N87 cells; assay: Cell viability CellTiter-Glo, N87; type: cell-based, human; conditions: unconjugated payload of the ADC
Method: (§3) HCC1954 (American Type Culture Collection (ATCC)) breast ductal carcinoma cells were plated at 2000 cells/well in flat bottom 96-well tissue culture plates (Corning) in a total volume of 90 μL tissue culture medium supplemented with 10% fetal bovine serum (ThermoFisher Scientific). Cells were treated with a 3-fold serial dilution of compound from 200 nM to 0.03 nM. Each concentration was tested in triplicate. At the time of treatment, a plate of untreated cells was evaluated using CellTiter-Glo®2.0 Luminescent Cell Viability Assay according to the manufacturer's recommendations (Promega; #G9241). CellTiter-Glo® 2.0 reagent was added to the medium, incubated, and assayed on an EnVision Multilabel Reader (PerkinElmer). Values represent time zero (TO). […] Percentage growth inhibition was calculated as: [(T144-T0)/(C-TO)]×100 for concentrations for which T144>/=TO or [(T144-T0)/T0]×100 for concentrations for which T144<TO. The dose response curve plots were generated using Prism 7 (Graphpad) and fit using nonlinear regression analysis and the log(inhibitor) versus response-variable slope (four parameters).
as §2

[6] = test system: Ad2.2 pre-mRNA splicing; assay: In vitro splicing (IVS) RT-qPCR, Ad2.2 pre-mRNA, HeLa nuclear extract; type: biochemical; conditions: payload of the ADC; read-out: qPCR-IVS-AT S GMean IC50 (nM) Ad2.2 HELA.2
Method: To evaluate payload activity in a cell-free system, an in vitro splicing assay was performed. The payloads were incubated with nuclear extracts and pre-mRNA substrate minigenes.
HeLa nuclear extract preparation: HeLa S3 cell pellets were resuspended in hypotonic buffer (10 mM HEPES pH 7.9, 1.5 mM MgCl2, 10 mM KCl, 0.2 mM PMSF, 0.5 mM DTT) and the suspension was brought up to a total of 5 packed cell volume (PCV). After centrifugation, the supernatant was discarded, and the cells were brought up to 3 PCV with hypotonic buffer and incubated on ice for 10 min. Cells were lysed using a dounce homogenizer and then centrifuged. […]. The nuclei were gently mixed for 30 min before centrifuging. The supernatant (nuclear extract) was then dialyzed into storage buffer (20 mM HEPES pH 7.9, 100 mM KCl, 0.2 mM EDTA, 20% glycerol, 0.2 mM PMSF, 0.5 mM DTT). Protein concentration was determined using NanoDrop 8000 UV-Vis spectrophotometer (ThermoFisher Scientific).
IVS: All Ad2-derived sequences (Pellizzoni et al. (1998) Cell 95(5):615-24) were cloned into pcDNA3.1(+) vector (Promega) using 5′ EcoRI and 3′ Xbal restriction sites. The plasmids were linearized using Xbal and used as DNA templates in in vitro transcription reactions. The FtzΔi intron-less plasmid (Luo and Reed (1999) 96(26):14937-42) was linearized using EcoRI. All RNAs were in vitro transcribed and then purified using MEGAScript T7 (Invitrogen) and MegaClear (Invitrogen) kits, respectively. For splicing reactions using Ad2 variant pre-mRNAs, 1 μL reactions were prepared using 8 μg nuclear extracts prepared from HeLa S3, 2 ng pre-mRNA, 0.2 ng FTZΔi, and varying concentrations of compounds or DMSO. After a 15 min pre-incubation at 30° C., 1 μL splicing activation buffer (0.5 mM ATP, 20 mM creatine phosphate, 1.6 mM MgCl2) was added, and the reactions were incubated for 90 min at 30° C. The reactions were then quenched with 13 μL DMSO, and 25 nL was used for RT-qPCR. RT-qPCR reactions were prepared using TaqMan RNA-to-CT 1-step kit (Life Technologies), RNA from splicing reactions, Ad2 (forward: […]; reverse: […]; probe: […]) and Ftz (forward: […]; reverse: […]; probe: […]) mRNA primer-probe sets. Prism 7 (Graphpad) was used for non-linear regression curve fitting of the formed spliced product and normalized to the control (DMSO) sample. […] In the presence of payload, a decrease in the amount of spliced product was observed.

[7] = test system: PC3 cells; assay: Cell viability, EPHA2-expressing PC3; type: cell-based; conditions: corresponding payload alone
Method: as §3

[8] = test system: Ad2.1 pre-mRNA splicing; assay: In vitro splicing (IVS) RT-qPCR, Ad2.1 pre-mRNA, HeLa nuclear extract; type: biochemical; conditions: payload of the ADC; read-out: qPCR-IVS-AT S Gmean IC50 (nm) Ad2.1 HELA.2
Method: HeLa nuclear extract preparation: HeLa S3 cell pellets were resuspended in hypotonic buffer (10 mM HEPES pH 7.9, 1.5 mM MgCl2, 10 mM KCl, 0.2 mM PMSF, 0.5 mM DTT) and the suspension was brought up to a total of 5 packed cell volume (PCV). After centrifugation, the supernatant was discarded, and the cells were brought up to 3 PCV with hypotonic buffer and incubated on ice for 10 min. Cells were lysed using a dounce homogenizer and then centrifuged. […] The nuclei were gently mixed for 30 min before centrifuging. The supernatant (nuclear extract) was then dialyzed into storage buffer (20 mM HEPES pH 7.9, 100 mM KCl, 0.2 mM EDTA, 20% glycerol, 0.2 mM PMSF, 0.5 mM DTT). Protein concentration was determined using NanoDrop 8000 UV-Vis spectrophotometer (ThermoFisher Scientific).
IVS: All Ad2-derived sequences (Pellizzoni et al. (1998) Cell 95(5):615-24) were cloned into pcDNA3.1(+) vector (Promega) using 5′ EcoRI and 3′ Xbal restriction sites. The plasmids were linearized using Xbal and used as DNA templates in in vitro transcription reactions. The FtzΔi intron-less plasmid (Luo and Reed (1999) 96(26):14937-42) was linearized using EcoRI. All RNAs were in vitro transcribed and then purified using MEGAScript T7 (Invitrogen) and MegaClear (Invitrogen) kits, respectively. For splicing reactions using Ad2 variant pre-mRNAs, 1 μL reactions were prepared using 8 μg nuclear extracts prepared from HeLa S3, 2 ng pre-mRNA, 0.2 ng FTZΔi, and varying concentrations of compounds or DMSO. After a 15 min pre-incubation at 30° C., 1 μL splicing activation buffer (0.5 mM ATP, 20 mM creatine phosphate, 1.6 mM MgCl2) was added, and the reactions were incubated for 90 min at 30° C. The reactions were then quenched with 13 μL DMSO, and 25 nL was used for RT-qPCR. RT-qPCR reactions were prepared using TaqMan RNA-to-CT 1-step kit (Life Technologies), RNA from splicing reactions, Ad2 (forward: [sequence]; reverse: [sequence]; probe: [sequence]) and Ftz (forward: [sequence]; reverse: [sequence]; probe: [sequence]) mRNA primer-probe sets. Prism 7 (Graphpad) was used for non-linear regression curve fitting of the formed spliced product and normalized to the control (DMSO) sample.

[9] = test system: HCC1954 cells; assay: Cell viability CellTiter-Glo, HCC1954; type: cell-based; conditions: unconjugated payload of the ADC
Method: as §3, §2

[10] = test system: MOLP8 cells; assay: Cell viability, CD138-expressing MOLP8; type: cell-based; conditions: for LD50 (nM) (payload) / Rmin (%) (payload): unconjugated payload of the ADC
Method: as §3

[11] = Chemical stability of ADC payload, pH 5.5 buffer; conditions: for pH 5.5 Stability (t1/2, 37C): Table 26, corresponding payload, pH 5.5, 37C
[12] = molecular target: T1, SF3b complex (Homo sapiens, UniProt O75533+Q7RTV0); assay: SF3B1 binding / scintillation proximity assay (SPA); conditions: payload of the ADC; read-out: SPA-AT S GMean IC50 (nM) SF381 (WT) HELA.2
T1 construct: The beads were suspended and added to the prepared nuclear extracts
Method: A scintillation proximity assay was performed to measure the binding affinity of compounds (“payloads”) to the SF3b complex. Batch immobilization of anti-SF3B1 antibody (MBL) to anti-mouse PVT SPA scintillation beads (PerkinElmer) was prepared as follows: for every 2.5 mg of nuclear extracts, 5 μg of anti-SF3B1 antibody and 1.5 mg of beads were mixed in 150 μL PBS. The antibody-bead mixture was incubated for 30 min at RT and centrifuged at 18,000g for 5 min. 150 μL PBS was used to resuspend every 1.5 mg antibody-bead mixture. The beads were suspended and added to the prepared nuclear extracts. The slurry was incubated for 2 hours at 4° C. with gentle mixing. The beads were then collected by centrifuging at 18,000g for 5 min, and washed twice with PBS+0.1% Triton X-100. After a final centrifugation step, every 1.5 mg of beads was suspended with 150 μL of PBS. […] The mixture was incubated for 30 min, and luminescence signals were read using a MicroBeta2 Plate Counter (PerkinElmer).

[13] = in vivo; cited from earlier work

| Molecule | CTGlo-AT S GMean LD50 (nM) 72 h THP1.1 [1] [nM] | Payload LD50 [2] [nM] | Payload Rmin (%) [2] [%] | efflux ratio at 2 h, 10 μM [3] | Payload LD50 [5] [nM] | IC50 [6] [nM] | Payload LD50 [7] [nM] | IC50 [8] | Payload LD50 [9] [nM] | Payload Rmin (%) [9] | LD50 (nM) (payload) [10] | Rmin (%) (payload) [10] | Permeability Caco-2 A-B (10e-6 cm/s) [4] | pH 5.5 Stability (t1/2, 37C) [11] | also measured |
| --- | --- | --- | --- | --- | --- | --- | --- | --- | --- | --- | --- | --- | --- | --- | --- |
| CC[C@H](O)[C@@H](C)C1OC1C[C@@](C)(O)/C=C/C=C(\C)[C@H]1OC(=O)C[C@H](O)CC[C@@](C)(OC)[C@@H](OC(=O)N2CCNCC2)/C=C/[C@@H]1C (stereo in doubt) [D1, (2S,3S,6S,7R,10R,E)-10-hydroxy-2-((R,2E,4E)-6-hydroxy-7-((2S,3S)-3-((2R,3S)-3-hydroxypentan-2-yl)oxiran-2-yl)-6-methylhepta-2,4-dien-2-yl)-7-methoxy-3,7-dimethyl-12-oxooxacyclododec-4-en-6-yl piperazine-1-carboxylate] | 41.408 | 135.42 | −63.414 | 14.6 | >200 | 15.9 | >400 | 17.6 nM | 5.485 | −78.579% and −75.579% | 25.712 | −100.248 |  |  | Perm. Mean Caco-2 A-B Perm (10e-6 cm/s) [4]: 0.14 10e-6 cm/s; Perm. Mean Caco-2 B-A Perm (10e-6 cm/s) [4]: 2.05 10e-6 cm/s; Eflux ratio ([4]; payload): 14.643; GI50 ([10]; Homo sapiens, MOLP-8, unconjugated payload of the ADC, read-out: GI50 (nM) (payload)): 6.88 nM |
| CC[C@H](O)[C@@H](C)C1OC1C[C@@](C)(O)/C=C/C=C(\C)[C@H]1OC(=O)C[C@H](O)CC[C@@](C)(OC(C)=O)[C@@H](OC(=O)N2CCNCC2)/C=C/[C@@H]1C (stereo in doubt) [D4, (2S,3S,6S,7R,10R,E)-7-acetoxy-10-hydroxy-2-((R,2E,4E)-6-hydroxy-7-((2S,3S)-3-((2R,3S)-3-hydroxypentan-2-yl)oxiran-2-yl)-6-methylhepta-2,4-dien-2-yl)-3,7-dimethyl-12-oxooxacyclododec-4-en-6-yl piperazine-1-carboxylate] | 33.329 | 96.46 | −60.923 |  | 38.774 | 17.3 | >400 | 20.9 nM | 6.374 | −81.34% | 12.99 | −101.935 | 0.1 10e-6 cm/s | 4.5 | Perm. Mean Caco-2 A-B Perm (10e-6 cm/s) [4]: 0.1 10e-6 cm/s; Perm. Mean Caco-2 B-A Perm (10e-6 cm/s) [4]: 1.79 10e-6 cm/s; Eflux ratio ([4]; payload): 17.9 |
| CC[C@H](O)[C@@H](C)[C@H]1O[C@@H]1C[C@@](C)(O)/C=C/C=C(\C)[C@H]1OC(=O)C[C@H](O)CC[C@@](C)(OC)[C@@H](OC(=O)N2CCN(C)CC2)/C=C/[C@@H]1C [D2, (2S,3S,6S,7R,10R,E)-10-hydroxy-2-((R,2E,4E)-6-hydroxy-7-((2R,3R)-3-((2R,3S)-3-hydroxypentan-2-yl)oxiran-2-yl)-6-methylhepta-2,4-dien-2-yl)-7-methoxy-3,7-dimethyl-12-oxooxacyclododec-4-en-6-yl 4-methylpiperazine-1-carboxylate] | 11.708 | 30.318 | −66.915 | 22.8 | >200 | 15.3 | >400 | 19.1 nM and 19.3 nM | 2.758 | −78.732% | 5.035 | −100.198 | 0.6 10e-6 cm/s | 4 | Eflux ratio ([4]; payload): 22.756 |
| CC(=O)N1CCC(n2nnc3c(F)cc(/C=C(\C)[C@H]4OC(=O)C[C@H](O)CC[C@H](C)[C@@H](OC(=O)N5CCN(C)CC5)/C=C/[C@@H]4C)cc32)CC1 [D15] | 11.038 | 130.398 | −68.503 |  |  | 4.93 | >400 | 4.63 nM |  |  | 9.178 | −100.198 | 3.4 10e-6 cm/s | 7 |  |
| C/C(=C\c1cc(F)cc(N2CCN(C(=O)Cn3cccn3)CC2)c1)[C@H]1OC(=O)C[C@H](O)CC[C@H](C)[C@@H](OC(=O)N2CCNCC2)/C=C/[C@@H]1C [D16] | 21.46 |  |  | 32.4 | >200 | 15.1 |  | 16 nM | 2.037 | −84.412% |  |  | 0.72 10e-6 cm/s | 7 | GI50 ([5]; Homo sapiens): 0.41 nM; GI50 ([9]; Homo sapiens): 0.358 nM |
| C/C(=C\c1cc(F)cc(N2CCOCC2)c1)[C@H]1OC(=O)C[C@H](O)CC[C@H](C)[C@@H](OC(=O)N2CCN(C)CC2)/C=C/[C@@H]1C [D17] | 24.908 |  |  | 0.896 |  | 9.44 |  | 17.9 nM |  |  |  |  | 20 10e-6 cm/s | 7 |  |
| CC[C@H](O)[C@@H](C)[C@H]1O[C@@H]1C[C@H](C)/C=C/C=C(\C)[C@H]1OC(=O)C[C@H](O)CC[C@@](C)(OC)[C@@H](OC(=O)N2CCN(C)CC2)/C=C/[C@@H]1C [D19, (2S,3S,6S,7R,10R,E)-10-hydroxy-2-((S,2E,4E)-7-((2R,3R)-3-((2R,3S)-3-hydroxypentan-2-yl)oxiran-2-yl)-6-methylhepta-2,4-dien-2-yl)-7-methoxy-3,7-dimethyl-12-oxooxacyclododec-4-en-6-yl 4-methylpiperazine-1-carboxylate] |  |  |  |  |  |  |  |  |  |  | 4.58 | −62.2 | 16 10e-6 cm/s | 0.8 |  |
| C/C(=C\c1cccc(S(=O)(=O)N2CCCC2)c1)[C@H]1OC(=O)C[C@H](O)CC[C@H](C)[C@@H](OC(=O)N2CCN(C)CC2)/C=C/[C@@H]1C [D34] |  |  |  |  |  |  |  |  |  |  |  |  | 26 10e-6 cm/s | 7 |  |
| COc1cc2cc(c1Cl)N(C)C(=O)C[C@H](OC(=O)[C@H](C)N(C)C(=O)CCS)[C@]1(C)O[C@H]1[C@H](C)[C@@H]1C[C@@](O)(NC(=O)O1)[C@H](OC)/C=C/C=C(\C)C2 [DM1, reference compound] | 3.287 |  |  |  |  | > 25000 |  | > 25000 nM |  |  |  |  |  |  | CTGlo-AT S Mean MinResponse % 72 h THP1.1 [1]: −93.785%; Permeability Mean Caco-2 A-B Perm (10e-6 cm/s) ([4]; payload, 10 μM, 2 hours, apical to basolateral): 0.38 10e-6 cm/s; Permeability Mean Caco-2 B-A Perm (10e-Gcm/s) ([4]; payload, 10 μM, 2 hours, basolateral to apical): 28.6 10e-Gcm/s; IC50 [12]: > 1200 nM; Stability Mean Stability t1/2 pH5.5 (d) ([11]; payload, 20 μM, pH 5.5 buffer, 37° C.): 1.3 d |
| ipilimumab |  |  |  |  |  |  |  |  |  |  |  |  |  |  | plasma half-life [13]: 12 to 14 days |
| tremelimumab |  |  |  |  |  |  |  |  |  |  |  |  |  |  | plasma half-life [13]: approximately 22 days |
